Test results: PubChem BioAssay AID2060488 (Molecular Pharmacology Branch, DTP, NCI, 2025)

System: 966289-007-R4-J1-PDC complex spheroid viability
Assay: Anticancer human tumor 966289-007-R4-J1-PDC patient-derived pancreatic adenocarcinoma cell line growth inhibition [GQUAD]
Conditions: for IC50: curve of first compound; for viability, T/C: stronger effect = lower value
Text: DNA G-quadruplex Stabilizer Agents in Combinations in Complex Spheroids
A high-throughput screen of multi-cell type tumor spheroids was designed to identify active combinations of DNA G-quadruplex stabilizer agents and targeted small molecules. Complex spheroids include a stromal component modeled by human endothelial cells (HUVEC) and fibroblasts modeled by human mesenchymal stem cells (MSCs). The concentration ranges selected for each drug and investigational agent were based upon clinically achievable concentrations if the clinical Cmax of the agent was known.
Compounds. The drugs and investigational agents: pidnarulex (CX-5461; NSC782164), APTO-253 (NSC789042), BRACO-19 (NSC847499), peposertib (NSC802822), ceralasertib (NSC780249), elimusertib (NSC800525), camonsertib (NSC841442), AZD-1390 (NSC803789), olaparib (NSC753686), talazoparib (NSC767125), ART-558 (NSC835418), sotorasib (NSC818433), MRTX-1133 (NSC836407), SN-38 (NSC673596), topotecan (NSC609699), etoposide (NSC141540), doxorubicin (NSC123127), gemcitabine (NSC613327), 5-fluorouracil (NSC19893), paclitaxel (NSC125973), vemurafenib (NSC761431), panobinostat (NSC761190), R-306465 (JNJ-16241199; NSC773264), adavosertib (NSC754352), TP-3654 (NSC805149), carboplatin (NSC241240), KSQ-4279 (NSC840948), and staurosporine (NSC755774) were obtained from the National Cancer Institute (NCI) Developmental Therapeutics Program Chemical Repository (34). The FDA-approved anticancer drug set is available from the NCI Developmental Therapeutics Program. […] The stock solutions were prepared in dimethyl sulfoxide (DMSO, Sigma-Aldrich, St. Louis, MO, cat. D2650) at 800-fold the tested concentration and stored at -70 degrees C prior to their use. All drugs and investigational agents were tested over a range starting from a high concentration at or near the clinical Cmax and decreasing in half-log increments. If the clinical Cmax for an agent had not been determined, the highest concentration tested was 10 microM.
2.3 Cell Culture. All cells were maintained in an incubator at 37 degrees C and 5% CO2 with 95% humidity. The PDC lines were cultured according to standard operating procedures established by the NCI PDMR. All PDCs were thawed and cultured in Matrigel-coated flasks prepared with a working solution of 1X Ham's F-12 nutrient mix, without supplementation (Invitrogen, cat. 11765054), 100 U/mL penicillin-streptomycin (Invitrogen, cat. 15140122), and 2.5% Matrigel (Corning Inc., cat. 354248) for the first three passages. The 857933-349-R-J2-PDC line was cultured in 6C/Colon 1B media, which includes advanced DMEM/F-12 (Thermo Fisher Scientific, cat. 12634028), 10 mM HEPES (Thermo Fisher Scientific, cat. 15630080), 1X GlutaMAX supplement (Thermo Fisher Scientific, cat. 35050061), 0.1 mg/mL primocin (InvivoGen, cat. ant-pm-2), 10% defined fetal bovine serum, heat inactivated (HyClone Laboratories Inc., cat. SH30070.03HI), 50% L-WRN conditioned media (ATCC, cat. CRL-3276), 1.25 mM N-Acetyl-L-cysteine (Sigma-Aldrich, cat. A9165), 10 mM nicotinamide (Sigma-Aldrich, cat. N0636), 1X B-27 supplement (Thermo Fisher Scientific, cat. 17504044), 1X N-2 supplement (Thermo Fisher Scientific, cat. 17502048), 10 microM Y-27632 dihydrochloride (Tocris Bioscience, cat. 1254), and 50 ng/mL human EGF recombinant protein (Thermo Fisher Scientific, cat. PHG0311). The 485176-168-R4-J1-PDC line was cultured in Panc media, which includes all 6C/Colon 1B media components plus 100 ng/mL human FGF-10 (Thermo Fisher Scientific, cat. 100-26), 500 nM SB-431542 (Selleckchem, cat. S1067), and gastrin (Tocris, cat. 3006).
[…]

[1] = second compound 0.0316 µM, first compound 0.0316 µM
[2] = second compound 0.0316 µM, first compound 0.316 µM
[3] = second compound 0.1 µM, first compound 0.0316 µM
[4] = second compound 0.1 µM, first compound 0.316 µM
[5] = second compound 0.316 µM, first compound 0.0316 µM
[6] = second compound 0.316 µM, first compound 0.316 µM
[7] = second compound 1 µM, first compound 0.0316 µM
[8] = second compound 1 µM, first compound 0.316 µM
[9] = second compound 3.16 µM, first compound 0.0316 µM
[10] = second compound 3.16 µM, first compound 0.316 µM
[11] = second compound 10 µM, first compound 0.0316 µM
[12] = second compound 10 µM, first compound 0.316 µM
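Further: spheroids exposed to the agents for seven days before readout.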
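Wherever viability, T/C is given: percent viability relative to DMSO vehicle control wells taken as 100%.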

`CC[C@@]1(O)C(=O)OCc2c1cc1n(c2=O)Cc2cc3c(CN(C)C)c(O)ccc3nc2-1` + Cc1[nH]c2ccc(F)cc2c1-c1nc2c3cccnc3c3ncccc3c2[nH]1 gave an IC50 (second compound 0.0316 µM) of 44.6 nM, an IC50 (second compound 0.1 µM) of 48 nM and an IC50 (second compound 0.316 µM) of 50.2 nM. For the same compound, the IC50 (second compound 1 µM) was 49.2 nM, the IC50 (second compound 3.16 µM) was 36.9 nM and the IC50 (second compound 10 µM) was 25.9 nM. It also gave a viability, T/C (second compound 0.0316 µM, first compound 0.000999 µM) of 102%, a viability, T/C (second compound 0.0316 µM, first compound 0.00316 µM) of 94.6% and a viability, T/C (second compound 0.0316 µM, first compound 0.00999 µM) of 90.2%. For the same compound, the viability, T/C [1] was 70.8%, the viability, T/C (second compound 0.0316 µM, first compound 0.0999 µM) was 0.88% and the viability, T/C [2] was 0.48%. The viability, T/C (second compound 0.1 µM, first compound 0.000999 µM) was 99.3%, the viability, T/C (second compound 0.1 µM, first compound 0.00316 µM) was 101% and the viability, T/C (second compound 0.1 µM, first compound 0.00999 µM) was 101%. The viability, T/C [3] was 78.2%, the viability, T/C (second compound 0.1 µM, first compound 0.0999 µM) was 0.6% and the viability, T/C [4] was 0.5%. It also gave a viability, T/C (second compound 0.316 µM, first compound 0.000999 µM) of 94.1%, a viability, T/C (second compound 0.316 µM, first compound 0.00316 µM) of 105% and a viability, T/C (second compound 0.316 µM, first compound 0.00999 µM) of 110%. For the same compound, the viability, T/C [5] was 83.1%, the viability, T/C (second compound 0.316 µM, first compound 0.0999 µM) was 0.88% and the viability, T/C [6] was 0.49%. It also gave a viability, T/C (second compound 1 µM, first compound 0.000999 µM) of 92.4%, a viability, T/C (second compound 1 µM, first compound 0.00316 µM) of 95% and a viability, T/C (second compound 1 µM, first compound 0.00999 µM) of 106%. The viability, T/C [7] was 80.9%, the viability, T/C (second compound 1 µM, first compound 0.0999 µM) was 0.78% and the viability, T/C [8] was 0.62%. It also gave a viability, T/C (second compound 3.16 µM, first compound 0.000999 µM) of 105%, a viability, T/C (second compound 3.16 µM, first compound 0.00316 µM) of 113% and a viability, T/C (second compound 3.16 µM, first compound 0.00999 µM) of 115%. It also gave a viability, T/C [9] of 57.7%, a viability, T/C (second compound 3.16 µM, first compound 0.0999 µM) of 0.9% and a viability, T/C [10] of 0.56%. The viability, T/C (second compound 10 µM, first compound 0.000999 µM) was 105%, the viability, T/C (second compound 10 µM, first compound 0.00316 µM) was 106% and the viability, T/C (second compound 10 µM, first compound 0.00999 µM) was 108%. The viability, T/C [11] was 38.2%, the viability, T/C (second compound 10 µM, first compound 0.0999 µM) was 0.71% and the viability, T/C [12] was 0.5%.

For `CC(C)n1c(=O)n(C)c2cnc3cc(F)c(-c4ccc(OCCCN5CCCCC5)nc4)cc3c21` + Cc1[nH]c2ccc(F)cc2c1-c1nc2c3cccnc3c3ncccc3c2[nH]1, the IC50 (second compound 0.0316 µM) was > 10000 nM, the IC50 (second compound 0.1 µM) was > 10000 nM and the IC50 (second compound 0.316 µM) was > 10000 nM. The IC50 (second compound 1 µM) was > 10000 nM, the IC50 (second compound 3.16 µM) was > 10000 nM and the IC50 (second compound 10 µM) was > 10000 nM. The viability, T/C [1] was 112%, the viability, T/C (second compound 0.0316 µM, first compound 0.1 µM) was 101% and the viability, T/C [2] was 110%. For the same compound, the viability, T/C (second compound 0.0316 µM, first compound 1 µM) was 101%, the viability, T/C (second compound 0.0316 µM, first compound 3.16 µM) was 109% and the viability, T/C (second compound 0.0316 µM, first compound 10 µM) was 82.4%. The viability, T/C [3] was 104%, the viability, T/C (second compound 0.1 µM, first compound 0.1 µM) was 101% and the viability, T/C [4] was 109%. For the same compound, the viability, T/C (second compound 0.1 µM, first compound 1 µM) was 105%, the viability, T/C (second compound 0.1 µM, first compound 3.16 µM) was 110% and the viability, T/C (second compound 0.1 µM, first compound 10 µM) was 89.1%. The viability, T/C [5] was 99.8%, the viability, T/C (second compound 0.316 µM, first compound 0.1 µM) was 110% and the viability, T/C [6] was 106%. The viability, T/C (second compound 0.316 µM, first compound 1 µM) was 111%, the viability, T/C (second compound 0.316 µM, first compound 3.16 µM) was 105% and the viability, T/C (second compound 0.316 µM, first compound 10 µM) was 85.9%. It also gave a viability, T/C [7] of 104%, a viability, T/C (second compound 1 µM, first compound 0.1 µM) of 108% and a viability, T/C [8] of 109%. For the same compound, the viability, T/C (second compound 1 µM, first compound 1 µM) was 109%, the viability, T/C (second compound 1 µM, first compound 3.16 µM) was 109% and the viability, T/C (second compound 1 µM, first compound 10 µM) was 85.5%. It also gave a viability, T/C [9] of 102%, a viability, T/C (second compound 3.16 µM, first compound 0.1 µM) of 107% and a viability, T/C [10] of 110%. The viability, T/C (second compound 3.16 µM, first compound 1 µM) was 104%, the viability, T/C (second compound 3.16 µM, first compound 3.16 µM) was 105% and the viability, T/C (second compound 3.16 µM, first compound 10 µM) was 62.2%. It also gave a viability, T/C [11] of 103%, a viability, T/C (second compound 10 µM, first compound 0.1 µM) of 104% and a viability, T/C [12] of 107%. The viability, T/C (second compound 10 µM, first compound 1 µM) was 104%, the viability, T/C (second compound 10 µM, first compound 3.16 µM) was 94.9% and the viability, T/C (second compound 10 µM, first compound 10 µM) was 61.8%.
